Results from patent publication US4871744A, “Certain 2,3-dihydro-indole-1-carboxamido-N-[8-azabicyclo(3.2.1)octan-3-yl]d e” (priority 1988, dated 1989).
Structures can show the parent of a compound that is named as a salt.

System: von Bezold-Jarisch reflex evoked by 5-HT
Test: Antagonism of the von Bezold-Jarisch reflex evoked by 5-HT in the anaesthetised rat
Type: in vivo
Settings: Rattus norvegicus, iv; urethane-anaesthetised male rats; 5-HT-evoked changes in heart rate; 5-HT usually 6 μg/kg i.v.; read-out: ED50 (concentration required to reduce the 5HT-evoked response to 50% of the control response)
Protocol: Antagonism of the von Bezold-Jarisch reflex
The compounds were evaluated for antagonism of the von Bezold-Jarisch reflex evoked by 5-HT in the anaesthetised rat according to the following method:
Pharmacol. 2, 229-245 (1980). A submaximal dose of 5-HT (usually 6 μg/kg) was given repeatedly by the intravenous route and changes in heart rate quantified. Compounds were given intravenously and the concentration required to reduce the 5HT-evoked response to 50% of the control response (ED50) was then determined.

**Q.** With `CN1[C@@H]2CC[C@H]1C[C@@H](NC(=O)N1CCc3ccc([N+](=O)[O-])cc31)C2` [Example 17, endo-N-(8-Methyl-8-azabicyclo[3.2.1]oct-3-yl)-2,3-dihydro-6-nitroindole-1-carboxamide hydrochloride] as the molecule, how does the ED50 read?
**A.** > 10 µg/kg

**Q.** `CN1[C@@H]2CC[C@H]1C[C@@H](NC(=O)n1ccc3ccccc31)C2` [Example 11, endo-N-(8-Methyl-8-azabicyclo[3.2.1]oct-3-yl)indole-1-carboxamide hydrochloride] was tested. Which ED50 did it give?
**A.** 7.7 µg/kg

**Q.** `CC1(C)CN(C(=O)NC2CN3CCC2CC3)c2ccccc21` (stereo not shown) [Example 18, N-(1-Azabicyclo[2.2.2]oct-3-yl)2,3-dihydro-3,3-dimethylindole-1-carboxamidehydrochloride] was tested. Which ED50 did it give?
**A.** 5.3 µg/kg

**Q.** `CC1CN(C(=O)N[C@H]2C[C@H]3CC[C@@H](C2)N3C)c2ccccc21` (stereo partly drawn) [Example 4, endo-N-(8-Methyl-8-azabicyclo[3.2.1]oct-3-yl)-2,3-dihydro-3-methylindole-1-carboxamide hydrochloride] was tested. Which ED50 did it give?
**A.** 3 µg/kg

**Q.** Which ED50 does the source give for `CC(C)C1CN(C(=O)N[C@H]2C[C@H]3CC[C@@H](C2)N3C)c2ccccc21` (stereo partly drawn) [Example 22, (endo)-N-(8-Methyl-8-azabicyclo[3.2.1]oct-3-yl)-2,3-dihydro-3-isopropylindole-1-carboxamide hydrochloride] here?
**A.** 0.56 µg/kg

**Q.** For `CCN1[C@@H]2CC[C@H]1C[C@@H](NC(=O)N1CCc3ccccc31)C2` [Example 7, endo-N-(8-Ethyl-8-azabicyclo[3.2.1]oct-3-yl)-2,3-dihydroindole-1-carboxamide], which ED50 is on record?
**A.** > 10 µg/kg

**Q.** How did the ED50 turn out when `CCc1cn(C(=O)N[C@H]2C[C@H]3CC[C@@H](C2)N3C)c2ccccc12` [Example 15, endo-N-(8-Methyl-8-azabicyclo[3.2.1]-oct-3-yl)-3-ethylindole-1-carboxamide hydrochloride] was run?
**A.** 2 µg/kg

**Q.** Which ED50 does the source give for `CC1Cc2ccccc2N1C(=O)N[C@H]1C[C@H]2CC[C@@H](C1)N2C` (stereo partly drawn) [Example 19, (endo)-N-(8-Methyl-8-azabicyclo[3.2.1]oct-3-yl)-2,3-dihydro-2-methylindole-1-carboxamide hydrochloride] here?
**A.** 0.79 µg/kg

**Q.** `CCC1CN(C(=O)N[C@H]2C[C@H]3CC[C@@H](C2)N3C)c2ccccc21` (stereo partly drawn) [Example 14, endo-N-(8-Methyl-8-azabicyclo[3.2.1]oct-3-yl)-2,3-dihydro-3-ethylindole-1-carboxamide hydrochloride] was tested. Which ED50 did it give?
**A.** 1 µg/kg

**Q.** How did the ED50 turn out when `CN1[C@@H]2CC[C@H]1C[C@@H](OC(=O)N1CCc3ccccc31)C2` [Example 3, endo(8-Methyl-8-azabicyclo[3.2.1]oct-3-yl)-2,3-dihydroindole carboxylic acid ester] was run?
**A.** 5 µg/kg

**Q.** `Cl.O=C(NC1CN2CCC1CC2)N1CCc2ccccc21` (stereo not shown) [Example 12, N-(1-Azabicyclo[2.2.2]oct-3-yl)2,3-dihydroindole-1-carboxamide hydrochloride] was tested. Which ED50 did it give?
**A.** 4.4 µg/kg

**Q.** Which ED50 does the source give for `CN1[C@@H]2CC[C@H]1C[C@@H](NC(=O)N1CCc3cc(F)ccc31)C2` [Example 8, endo-N-(8-Methyl-8-azabicyclo[3.2.1]oct-3-yl)-5-fluoro-2,3-dihydroindole-1-carboxamide hydrochloride] here?
**A.** 17 µg/kg

**Q.** How did the ED50 turn out when `CN1[C@@H]2CC[C@H]1C[C@@H](NC(=O)N1CCc3cc([N+](=O)[O-])ccc31)C2` [Example 16, endo-N-(8-Methyl-8-azabicyclo[3.2.1]oct-3-yl)-2,3-dihydro-5-nitroindole-1-carboxamide] was run?
**A.** > 10 µg/kg

**Q.** `CN1[C@@H]2CC[C@H]1C[C@@H](NC(=O)N1CCc3cc(Cl)ccc31)C2` [Example 9, endo-N-(8-Methyl-8-azabicyclo[3.2.1]oct-3-yl)-2,3-dihydro-5-chloroindole-1-carboxamide] was tested. Which ED50 did it give?
**A.** > 10 µg/kg

**Q.** For `COc1ccc2c(c1)CCN2C(=O)N[C@H]1C[C@H]2CC[C@@H](C1)N2C` [Example 10, endo-N-(8-Methyl-8-azabicyclo[3.2.1]oct-3-yl)2,3-dihydro-5-methoxyindole-1-carboxamide], which ED50 is on record?
**A.** 7 µg/kg

**Q.** For `Cc1cn(C(=O)N[C@H]2C[C@H]3CC[C@@H](C2)N3C)c2ccccc12` [Example 6, endo-N-(8-Methyl-8-azabicyclo[3.2.1]oct-3-yl)-3-methylindole-1-carboxamide hydrochloride], which ED50 is on record?
**A.** 1.6 µg/kg

**Q.** With `CN1[C@@H]2CC[C@H]1C[C@@H](NC(=O)N1CC(C)(C)c3ccccc31)C2` [Example 5, endo-N-(8-Methyl-8-azabicyclo[3.2.1]oct-3-yl)-2,3-dihydro-3,3-dimethylindole-1-carboxamide] as the molecule, how does the ED50 read?
**A.** 0.58 µg/kg

**Q.** How did the ED50 turn out when `CN1[C@@H]2CCC[C@H]1C[C@@H](NC(=O)N1CCc3ccccc31)C2` [Example 1, endo-N-(9-Methyl-9-azabicyclo[3.3.1]non-3-yl)-2,3-dihydroindole-1-carboxamide] was run?
**A.** 12.5 µg/kg

**Q.** `CN1[C@@H]2CC[C@H]1C[C@@H](NC(=O)N1CCc3ccccc31)C2` [Example 2, endo-N-(8-Methyl-8-azabicyclo[3.2.1]oct-3-yl)-2,3-dihydroindole-1-carboxamide] was tested. Which ED50 did it give?
**A.** 1.4 µg/kg

**Q.** With `CC1N(C(=O)N[C@H]2C[C@H]3CC[C@@H](C2)N3C)c2ccccc2C1(C)C` (stereo partly drawn) [Example 21, (endo)-N-(8-Methyl-8-azabicyclo[3.2.1]oct-3-yl)-2,3-dihydro-2,3,3-trimethylindole-1-carboxamide hydrochloride] as the molecule, how does the ED50 read?
**A.** 1.4 µg/kg

**Q.** For `CC1c2ccccc2N(C(=O)N[C@H]2C[C@H]3CC[C@@H](C2)N3C)C1C` (stereo partly drawn) [Example 20, (endo)-N-(8-Methyl-8-azabicyclo[3.2.1]oct-3-yl)-2,3-dihydro-2,3-dimethylindole-1-carboxamide], which ED50 is on record?
**A.** 0.53 µg/kg

Same assay, conditions: i.v.; urethane-anaesthetised male rats; 5-HT-evoked changes in heart rate; 5-HT usually 6 μg/kg i.v.

**Q.** `O=C(OC1CN2CCC1CC2)N1CCc2ccccc21` (stereo not shown) [Example 13, N-(1-Azabicyclo[2.2.2]oct-3-yl)-2,3-dihydroindole-1-carboxylic acid ester] was tested. Which “ED50 (concentration required to reduce the 5HT-evoked response to 50% of the control response)” value did it give?
**A.** 3.9 µg/kg
